Test results taken from US8673951B2, “Isoxazoline-substituted benzamide compound and pesticide” (priority 2005, dated 2014).

Experiments:
[1] = test system: cabbage moth (Plutella xylostella); assay: Insecticidal test against cabbage moth (Test Example 1); format: in vivo; conditions: foliar, 144 h, read-out: insecticidal rate (rate of dead insects)
[2] = test system: common cutworm (Spodoptera litura); assay: Insecticidal test against common cutworm (Test Example 2); format: in vivo; conditions: in Brassica oleracea, foliar, 144 h, read-out: insecticidal rate (rate of dead insects)
Protocol: A 10% emulsifiable concentrate (depending on the compounds, 10% wettable powder was applied for the test) of the compound of the present invention was diluted with water […] To the chemical solution was dipped leaves of cabbage for about 10 seconds, and after air-drying, they were placed in a laboratory dish, then 5-common cutworm (Spodoptera litura) in the stage of second instar larva per the dish were released therein, and the dish was covered with a lid and contained at a thermostat chamber at 25° C. […] Incidentally, the test was carried out with two districts.

| SMILES | pest or weed control at 500 ppm [1] [%] | pest or weed control at 100 ppm [1] [%] | pest or weed control at 100 ppm [2] [%] | pest or weed control at 10 ppm [1] [%] | pest or weed control at 10 ppm [2] [%] |
| --- | --- | --- | --- | --- | --- |
| CON=CNC(=O)c1ccc(C2=NOC(c3cc(Cl)cc(Cl)c3)(C(F)(F)F)C2)cc1CN(C)C (stereo not drawn) [6-032, 4-[5-(3,5-Dichlorophenyl)-5-trifluoromethyl-4,5-dihydroisoxazole-3-yl]-2-(dimethylaminomethyl)-N-(methoxyiminomethyl)benzoic acid amide] | ≥ 80 | – | – | – | – |
| Cc1cc(C2=NOC(c3cc(Cl)cc(Cl)c3)(C(F)(F)F)C2)ccc1C(=O)N(C)C(N)=O (stereo not drawn) [4-003, N-Carbamoyl-4-[5-(3,5-dichlorophenyl)-5-trifluoromethyl-4,5-dihydroisoxazole-3-yl]-2-methyl-N-methyl benzoic acid amide] | – | ≥ 80 | ≥ 80 | – | – |
| CCN(C(=O)NC(=O)c1ccc(C2=NOC(c3cc(Cl)cc(Cl)c3)(C(F)(F)F)C2)cc1C)C(=O)OC (stereo not drawn) [4-011, N-[4-[5-(3,5-dichlorophenyl)-5-trifluoromethyl-4,5-dihydro-isoxazole-3-yl]-2-methylbenzoyl]-N′-ethyl-N′-methoxycarbonyl urea] | – | – | – | ≥ 80 | ≥ 80 |
| COC(=O)N(C(=O)c1ccc(C2=NOC(c3cc(Cl)cc(Cl)c3)(C(F)(F)F)C2)cc1C)C1CCCO1 (stereo not drawn) [3-077, Methyl N-[4-[5-(3,5-dichlorophenyl)-5-trifluoromethyl-4,5-dihydro-isoxazole-3-yl]-2-methylbenzoyl]-N-(2-tetrahydrofuranyl)carbamate] | – | – | – | ≥ 80 | ≥ 80 |
| Cc1cc(C2=NOC(c3cc(Cl)cc(Cl)c3)(C(F)(F)F)C2)ccc1C(=O)N(C)c1cccc(Br)n1 (stereo not drawn) [5-075, N-(6-Bromo-2-pyridyl)-4-[5-(3,5-dichlorophenyl)-5-trifluoromethyl-4,5-dihydro-isoxazole-3-yl]-N-methyl-2-methyl benzoic acid amide] | – | – | – | ≥ 80 | ≥ 80 |
| COC(=O)N(C(=O)c1ccc(C2=NOC(c3cc(Cl)cc(Cl)c3)(C(F)(F)F)C2)cc1C)c1cncnc1 (stereo not drawn) [5-169, Methyl N-[4-[5-(3,5-dichlorophenyl)-5-trifluoromethyl-4,5-dihydro-isoxazole-3-yl]-2-methylbenzoyl]-N-(5-pyrimidinyl)carbamate] | – | – | – | ≥ 80 | ≥ 80 |
| Cc1cc(C2=NOC(c3cc(Cl)cc(Cl)c3)(C(F)(F)F)C2)ccc1C(=O)N(C)c1ncc(C#N)cn1 (stereo not drawn) [5-171, N-(5-Cyano-2-pyrimidinyl)-4-[5-(3,5-dichlorophenyl)-5-trifluoromethyl-4,5-dihydroisoxazole-3-yl]-N-methyl-2-methyl benzoic acid amide] | – | – | – | ≥ 80 | ≥ 80 |
| COC(=O)N(COCC(F)(F)F)C(=O)c1ccc(C2=NOC(c3cc(Cl)cc(Cl)c3)(C(F)(F)F)C2)cc1C (stereo not drawn) [3-032, Methyl N-[4-[5-(3,5-dichlorophenyl)-5-trifluoromethyl-4,5-dihydro-isoxazole-3-yl]-2-methylbenzoyl]-N-(2,2,2-trifluoroethoxymethyl)carbamate] | – | – | – | ≥ 80 | ≥ 80 |
| Cc1cc(C2=NOC(c3cc(Cl)cc(Cl)c3)(C(F)(F)F)C2)ccc1C(=O)NC(N)=O (stereo not drawn) [4-002, N-Carbamoyl-4-[5-(3,5-dichlorophenyl)-5-trifluoromethyl-4,5-dihydro-isoxazole-3-yl]-2-methyl benzoic acid amide] | – | ≥ 80 | ≥ 80 | – | – |
| CON=CNC(=O)c1ccc(C2=NOC(c3cc(Cl)cc(Cl)c3)(C(F)(F)F)C2)cc1NC(C)=O (stereo not drawn) [6-033, 2-Acetylamino-4-[5-(3,5-dichlorophenyl)-5-trifluoromethyl-4,5-dihydroisoxazole-3-yl]-N-(methoxyiminomethyl)benzoic acid amide] | – | – | – | ≥ 80 | ≥ 80 |
| COC(=O)N(C(=O)c1ccc(C2=NOC(c3cc(Cl)cc(Cl)c3)(C(F)(F)F)C2)cc1C)c1ccc(C#N)cn1 (stereo not drawn) [5-071, Methyl N-(5-cyano-2-pyridyl)-N-[4-[5-(3,5-dichlorophenyl)-5-trifluoromethyl-4,5-dihydro-isoxazole-3-yl]-2-methylbenzoyl]carbamate] | – | – | – | ≥ 80 | ≥ 80 |
| CC(=O)N(C(=O)c1ccc(C2=NOC(c3cc(Cl)cc(Cl)c3)(C(F)(F)F)C2)cc1C)c1cccc(Cl)n1 (stereo not drawn) [5-073, N-Acetyl-N-(6-chloro-2-pyridyl)-4-[5-(3,5-dichlorophenyl)-5-trifluoromethyl-4,5-dihydroisoxazole-3-yl]-2-methyl benzoic acid amide] | – | – | – | ≥ 80 | ≥ 80 |
| CCO/N=C\NC(=O)c1ccc(C2=NOC(c3cc(Cl)cc(Cl)c3)(C(F)(F)F)C2)cc1OC(F)F (stereo not drawn) [6-023, (Z)-4-[5-(3,5-Dichlorophenyl)-5-trifluoromethyl-4,5-dihydroisoxazole-3-yl]-2-difluoromethoxy-N-(ethoxyiminomethyl)benzoic acid amide] | – | ≥ 80 | ≥ 80 | – | – |
| COC(=O)N(C(=O)c1ccc(C2=NOC(c3cc(Cl)cc(Cl)c3)(C(F)(F)F)C2)cc1C)c1ncccn1 (stereo not drawn) [5-014, Methyl N-[4-[5-(3,5-dichlorophenyl)-5-trifluoromethyl-4,5-dihydroisoxazole-3-yl]-2-methylbenzoyl]-N-(2-pyrimidinyl)carbamate] | – | ≥ 80 | ≥ 80 | – | – |
| CON=CNC(=O)c1ccc(C2=NOC(c3cc(Cl)cc(C(F)(F)F)c3)(C(F)(F)F)C2)cc1C (stereo not drawn) [6-037, 4-[5-(3-Chloro-5-trifluoromethylphenyl)-5-trifluoromethyl-4,5-dihydroisoxazole-3-yl]-N-(methoxyiminomethyl)-2-methyl benzoic acid amide] | – | – | – | ≥ 80 | ≥ 80 |
| COC(=O)NC(=O)c1c(C)cc(C2=NOC(c3cc(Cl)cc(Cl)c3)(C(F)(F)F)C2)cc1I (stereo not drawn) [2-019, Methyl N-[4-[5-(3,5-dichlorophenyl)-5-trifluoromethyl-4,5-dihydroisoxazole-3-yl]-6-iodo-2-methylbenzoyl]carbamate] | ≥ 80 | – | – | – | – |
| Cc1cc(C2=NOC(c3cc(Cl)cc(Cl)c3)(C(F)(F)F)C2)ccc1C(=O)N(C)C(=O)NC(=O)CCl (stereo not drawn) [4-006, N-Chloroacetyl-N′-[4-[5-(3,5-dichlorophenyl)-5-trifluoromethyl-4,5-dihydroisoxazole-3-yl]-2-methylbenzoyl]-N′-methyl urea] | – | ≥ 80 | ≥ 80 | – | – |
| COCc1cc(C2=NOC(c3cc(Cl)cc(Cl)c3)(C(F)(F)F)C2)ccc1C(=O)NC(=N)OC (stereo not drawn) [6-031, 4-[5-(3,5-Dichlorophenyl)-5-trifluoromethyl-4,5-dihydroisoxazole-3-yl]-N-(methoxy-iminomethyl)-2-methoxymethyl benzoic acid amide] | – | – | – | ≥ 80 | ≥ 80 |
| COC(=O)NC(=O)c1ccc(C2=NOC(c3cc(Cl)c(Cl)c(Cl)c3)(C(F)(F)F)C2)cc1C (stereo not drawn) [2-026, Methyl N-[2-methyl-4-[5-(3,4,5-trichlorophenyl)-5-trifluoromethyl-4,5-dihydroisoxazole-3-yl]benzoyl]carbamate] | – | – | – | ≥ 80 | ≥ 80 |
| Cc1cc(C2=NOC(c3cc(Cl)cc(Cl)c3)(C(F)(F)F)C2)ccc1C(=O)N(C)C1(Cl)N=CC=CN1 (stereo not drawn) [5-172, N-(2-Chloro-2-pyrimidinyl)-4-[5-(3,5-dichlorophenyl)-5-trifluoromethyl-4,5-dihydro-isoxazole-3-yl]-N-methyl-2-methyl benzoic acid amide] | ≥ 80 | – | – | – | ≥ 80 |
| CC(=O)N(C(=O)c1ccc(C2=NOC(c3cc(Cl)cc(Cl)c3)(C(F)(F)F)C2)cc1C)n1cccn1 (stereo not drawn) [5-044, N-Acetyl-4-[5-(3,5-dichlorophenyl)-5-trifluoromethyl-4,5-dihydroisoxazole-3-yl]-2-methyl-N-(1-pyrazolyl)benzoic acid amide] | – | ≥ 80 | ≥ 80 | – | – |
| COC(=O)N(C(=O)c1ccc(C2=NOC(c3cc(Cl)cc(Cl)c3)(C(F)(F)F)C2)cc1C)c1ccc(Cl)cn1 (stereo not drawn) [5-060, Methyl N-(5-chloro-2-pyridyl)-N-[4-[5-(3,5-dichlorophenyl)-5-trifluoromethyl-4,5-dihydro-isoxazole-3-yl]-2-methylbenzoyl]carbamate] | – | ≥ 80 | ≥ 80 | – | – |
| CCc1cc(C2=NOC(c3cc(Cl)cc(Cl)c3)(C(F)(F)F)C2)ccc1C(=O)N/C=N\OC (stereo not drawn) [6-020, (Z)-4-[5-(3,5-Dichlorophenyl)-5-trifluoromethyl-4,5-dihydroisoxazole-3-yl]-2-ethyl-N-(methoxyiminomethyl)benzoic acid amide] | – | – | – | ≥ 80 | ≥ 80 |
| CON=CN(C)C(=O)c1ccc(C2=NOC(c3cc(Cl)cc(Cl)c3)(C(F)(F)F)C2)cc1C (stereo not drawn) [7-002, 4-[5-(3,5-Dichlorophenyl)-5-trifluoromethyl-4,5-dihydroisoxazole-3-yl]-N-(methoxyiminomethyl)-N-methyl-2-methylbenzoic acid amide] | – | – | – | ≥ 80 | ≥ 80 |
| Cc1cc(C2=NOC(c3cc(Cl)cc(Cl)c3)(C(F)(F)F)C2)ccc1C(=O)N(C)c1cncnc1 (stereo not drawn) [5-164, 4-[5-(3,5-Dichlorophenyl)-5-trifluoromethyl-4,5-dihydroisoxazole-3-yl]-2-methyl-N-methyl-N-(5-pyrimidinyl)benzoic acid amide] | – | – | – | ≥ 80 | ≥ 80 |
